From patent US5258492A, “LHRH analogues with cytotoxic moieties at the sixth position” (The Administrators of the Tulane Educational Fund, priority 1991, dated 1993)

Assays:
[1] = test system: human breast carcinoma cells; conditions: prior art; cited from earlier work
rat mammary carcinomas = conditions: prior art; compared with ovariectomy; cited from earlier work
[2] = test system: membrane receptors of human prostate cancer; assay: Affinity to membrane receptors of human prostate cancer using 125I-labeled [D-Trp6]LHRH; format: binding
Protocol: (§1) This is determined by using labelled LHRH and [D-Trp^6 ]LHRH. The assay is carried out similarly to that described by T. Kadar et al., Proc. Natl. Acad. Sci. USA, 85, 890-894 (1988).
(§2) *Affinity constants of the peptides for the first receptor class, Ka
(§3) (i.e. for high affinity binding sites) and for the second receptor class,
(§4) Ka2 (i.e. for low affinity binding sites) of human prostate cancer
(§5) and rat Dunning tumor, respectively, as determined by using ^125
(§6) Ilabeled [DTrp^6 ]LHRH.

[3] = test system: membrane receptors of rat Dunning tumor; assay: Affinity to membrane receptors of rat Dunning tumor using 125I-labeled [D-Trp6]LHRH; format: binding
Protocol: as §1, §2, §3, §4, §5, §6

[4] = target: T1, membrane receptors of pituitary of male rats (Rattus norvegicus, UniProt P30969); assay: Binding affinity for membrane receptors of rat pituitary using 125I-labeled [D-Trp6]LHRH; conditions: Table 2, high affinity binding sites
T1 construct: from tissue; host or cells: pituitary of male rats (membranes)
T1 sequence (P30969 1-327): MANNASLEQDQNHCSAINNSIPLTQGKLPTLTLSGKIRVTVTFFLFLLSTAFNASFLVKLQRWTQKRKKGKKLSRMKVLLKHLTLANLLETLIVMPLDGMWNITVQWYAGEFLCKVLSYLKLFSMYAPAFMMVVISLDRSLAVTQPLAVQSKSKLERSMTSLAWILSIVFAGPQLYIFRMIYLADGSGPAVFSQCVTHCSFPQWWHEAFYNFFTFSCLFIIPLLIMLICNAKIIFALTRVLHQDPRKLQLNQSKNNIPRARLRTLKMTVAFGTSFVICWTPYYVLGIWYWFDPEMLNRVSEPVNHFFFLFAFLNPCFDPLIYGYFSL
Protocol: as §1
(§7) Table 2 presents the antiovulatory activity of the claimed compounds having LHRH-inhibiting properties. The inhibitory action was determined in vivo, in 4-day cycling rats as described [A. Corbin and C. W. Beattie, Endocr. Res. Commun., 2, 1-23 (1975)]. Affinities of the claimed compounds to membrane receptors of rat pituitary and human breast cancer cells are also given in Tables 1 and 2 as determined by using [^125 I,D-Trp^6 ]LHRH.
(§8) **Affinity constants of the peptides for the first receptor class (i.e.
(§9) for high affinity binding sites) of pituitary of male rats and human
(§10) breast cancer cells, respectively, as determined by using ^125
as §6
(§11) breast cancer cells, respectively, were determined by using ^125

[5] = target: T2, membrane receptors of human breast cancer cells (Homo sapiens, UniProt P30968); assay: Binding affinity for membrane receptors of human breast cancer cells using 125I-labeled [D-Trp6]LHRH; conditions: Table 2, high affinity binding sites
T2 construct: endogenous in cells; host or cells: human breast cancer cells (membranes)
T2 sequence (P30968 1-328): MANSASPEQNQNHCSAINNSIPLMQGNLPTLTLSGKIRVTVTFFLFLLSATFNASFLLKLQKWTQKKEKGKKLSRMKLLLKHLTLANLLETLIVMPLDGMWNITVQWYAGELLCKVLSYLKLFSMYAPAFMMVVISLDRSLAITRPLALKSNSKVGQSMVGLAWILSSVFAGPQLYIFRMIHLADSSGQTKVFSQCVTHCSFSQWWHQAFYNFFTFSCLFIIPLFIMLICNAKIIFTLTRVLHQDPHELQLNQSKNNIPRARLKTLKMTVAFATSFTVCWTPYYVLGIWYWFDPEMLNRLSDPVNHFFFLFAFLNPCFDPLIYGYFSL
Protocol: as §1, §7, §8, §9, §10, §6, §11

4-day cycling rats = assay: In vivo antiovulatory activity in 4-day cycling rats; parameters: species or system rat
Protocol: This activity of the peptides is determined in 4-day-cycling rats as described [A. Corbin and C. W. Beattie, Endocr. Res. Commun., 2, 1-23 (1975)].
as §7
*LHRH-inhibiting potencies were assayed in 4day cyclic rats.

LHRH = conditions: prior art; cited from earlier work
[6] = first receptor class (high affinity binding sites)
[7] = second receptor class (low affinity binding sites)

Row | Binding affinity, Ka1, for membrane receptors of pituitary [4] | Binding affinity, Ka1, for membrane receptors of cancer cells [5] | Compound | activity of Chlorambucil-linked LHRH agonist / antagonist analogue (in words) (LHRH) | further results
1 |  |  | CCNC(=O)[C@@H]1CCCN1C(=O)[C@H](CCCNC(=N)N)NC(=O)[C@H](CC(C)C)NC(=O)[C@@H](COC(C)(C)C)NC(=O)[C@H](Cc1ccc(O)cc1)NC(=O)[C@H](CO)NC(=O)[C@H](Cc1c[nH]c2ccccc12)NC(=O)[C@H](Cc1cnc[nH]1)NC(=O)[C@@H]1CCC(=O)N1 [Example A3] |  | growth of human breast carcinoma cells containing LHRH binding sites (in words) [1]: inhibited
2 |  |  | CC(C)C[C@H](NC(=O)[C@@H](COC(C)(C)C)NC(=O)[C@H](Cc1ccc(O)cc1)NC(=O)[C@H](CO)NC(=O)[C@H](Cc1c[nH]c2ccccc12)NC(=O)[C@H](Cc1cnc[nH]1)NC(=O)[C@@H]1CCC(=O)N1)C(=O)N[C@@H](CCCNC(=N)N)C(=O)N1CCC[C@H]1C(=O)NNC(N)=O [Example A4] |  | effectiveness in treatment of rat mammary carcinomas (in words) (rat mammary carcinomas): as effective as ovariectomy
3 |  |  | CC(C)C[C@H](NC(=O)[C@@H](Cc1c[nH]c2ccccc12)NC(=O)[C@H](Cc1ccc(O)cc1)NC(=O)[C@H](CO)NC(=O)[C@H](Cc1c[nH]c2ccccc12)NC(=O)[C@H](Cc1c[nH]cn1)NC(=O)[C@@H]1CCC(=O)N1)C(=O)N[C@@H](CCCNC(=N)N)C(=O)N1CCC[C@H]1C(=O)NCC(N)=O [[D-Trp^6]-LHRH, [D-Trp^6]LHRH, reference compound] |  | Human prostate cancer Ka1 [2, 6]: 0.04 nM⁻¹; Dunning tumor Ka1 [3, 6]: 1.87 nM⁻¹
4 | 2.901 nM⁻¹ | 1.337 nM⁻¹ | Ac-D-Nal(2)-D-Phe(4Cl)-D-Trp-Ser-Arg-D-Lys[(Cu^++)(POLP)2 (DL-A2 pr)]-Leu-Arg-Pro-D-Ala-NH2 [Example XXII] |  | % Blockade of ovulation (4-day cycling rats; Dose 10 μg/rat): 60%
5 | 9.183 nM⁻¹ | 4.951 nM⁻¹ | Ac-D-Nal(2)-D-Phe(4Cl)-D-Trp-Ser-Arg-D-Lys[(Cu^++)(SAL)2 (DL-A2 pr)]-Leu-Arg-Pro-D-Ala-NH2 [XII] |  | % Blockade of ovulation (4-day cycling rats; Dose 3 μg/rat): 20%
6 | 8.676 nM⁻¹ | 4.418 nM⁻¹ | Ac-D-Nal(2)-D-Phe(4Cl)-D-Trp-Ser-Arg-D-Lys[(Ni^++)(SAL)2 (DL-A2 pr)]-Leu-Arg-Pro-D-Ala-NH2 [Example XV] |  | % Blockade of ovulation (4-day cycling rats; Dose 3 μg/rat): 20%
7 |  |  | Ac-D-Nal(2)-D-Phe(4Cl)-D-Trp-Ser-Arg-D-Mel-Leu-Arg-Pro-D-Ala-NH2 [IIA] |  | Human prostate cancer Ka2 [2, 7]: 0.97 µM⁻¹; Dunning tumor Ka2 [3, 7]: 25.1 µM⁻¹
8 |  |  | [Chlorambucil-D-Leu^2,D-Leu^3,D-Ala^6 ]LHRH (2-10) | moderate activities | 
9 |  |  | [Chlorambucil-D-Phe^1,D-Phe^2,D-Trp^3,6 ]LHRH | practically inactive | 
10 |  |  | [D-Lys(Chlorambucil)^6 ] LHRH | moderate activities | 
